Test results as given in US3955959A, “Herbicide for use in transplanted rice” (priority 1974, dated 1976).

Experiments:
[1] = tested on: Perennials Ek and Sa (Eleocharis kuroguwai, Sagittaria aginashi); test: Example 1 field test, perennial weed control, Iri, Korea; type: in vivo; settings: weed weight at 63 DAT
Text: In the field test 48 day-old seedlings (Watanabe variety) were transplanted to plots 2.5 × 6 m. seeded with the weed seeds indicated in Table 1. At 5 and 10 DAT periods, the herbicides were applied to the plants (now at the 1.2 and 2.0 leaf stage, respectively, of grass weed) at the indicated rate in kilograms per hectare (kg/ha). The weed control and rice injury results for 3 replications are reported in percentages as of the indicated times of observation. The percentages given in the "Perennials" column are based on the weight of the weeds at 63 DAT, i.e., 42 gms/3.6 m^2 for the weedy check.

weeds in rice fields = settings: prior art; cited from earlier work
[2] = tested on: Grass: Ec and Ecol (Echinochloa crusgalli, Echinochloa colonum); test: Example 3 field test on Dapog rice, weed control, Munoz, Philippines; type: in vivo; settings: obs. 42 DAT
Text: (§1) Treatments were replicated four times.

[3] = tested on: Sedges: Cd, Ci, Fl (Cyperus difformis, Cyperus iria, Fimbristylis littoralis); test: as above; type: in vivo; settings: obs. 42 DAT
Text: as §1

Echinochloa crusgalli = test: Example 2 field test, weed control, Chia Yi, Taiwan; type: in vivo; settings: obs. 63 DAT
Description: In the tests described in the tables below, the herbicides were formulated and used in granular form in conventional manner. […] The commercial herbicide used was a granular product having 5% active ingredient.
In the field tests of the herbicide of this invention with transplanted rice, the rice seedlings were grown in conventional manner, by seeding the rice in a typical seedbed of sandy loam to clay soil of the country wherein the test was conducted. For laboratory and greenhouse work the seedlings were obtained by seeding rice in a mixture of soil, e.g., Ray silt loam, and peat in wood flats. For purposes of testing the herbicides on younger rice seedlings (infant or Dapog) the rice was usually allowed to grow for 6-15 days before lifting for transplanting. Older (ordinary) rice plants were usually grown for a period of about 2-3 weeks, or as much as about 7 weeks before lifting. Since the period of growth is dependent upon climatic conditions, a better measure of when to transplant the rice seedling is the leaf stage of growth; for infant or Dapog rice the seedling is lifted at the 1.5-2 leaf stage of growth, and for ordinary seedlings at the 2.5-5 leaf stage. The seedlings were then transplanted to the test plots for evaluation of the herbicide for injury against weed species present with the transplanted rice. The herbicides were then applied to the growth medium of the weeds and transplant rice, either preemergent or postemergent with respect to the weeds and postemergent with respect to the transplanted rice. […] Application rates given in the tables refer to the amount of active ingredient used.
Rice seedlings (ordinary) of Tainan No. 5 variety (japonica) were transplanted at 19 days of growth. Granular formulations of Herbicides A and B were applied at the 1 leaf stage of grass weed (4 DAT) and 2.5 leaf stage of grass weed (10 DAT).

CCCCOCN(C(=O)CCl)c1c(CC)cccc1CC [Herbicide B, n-(butoxymethyl)-2',6'-diethyl-2-chloroacetanilide, reference compound]
% Weed Control (Perennials Ek and Sa) ([1]; 5 DAT, 1.0 kg/ha): 0% | % Weed Control (Perennials Ek and Sa) ([1]; 5 DAT, 1.5 kg/ha): 41% | % Weed Control (Perennials Ek and Sa) ([1]; 5 DAT, 3.0 kg/ha): 0% | % Weed Control (Perennials Ek and Sa) ([1]; 10 DAT, 1.0 kg/ha): 0% | % Weed Control (Perennials Ek and Sa) ([1]; 10 DAT, 1.5 kg/ha): 0% | % Weed Control (Perennials Ek and Sa) ([1]; 10 DAT, 3.0 kg/ha): 0% | period of application (weeds in rice fields): only brief periods of application | % Weed control, Grass (Ec and Ecol) ([2]; 5 DAT, 1.0 kg/ha): 100% | % Weed control, Grass (Ec and Ecol) ([2]; 5 DAT, 1.5 kg/ha): 100% | % Weed control, Grass (Ec and Ecol) ([2]; 5 DAT, 3.0 kg/ha): 100% | % Weed control, Grass (Ec and Ecol) ([2]; 14 DAT, 1.0 kg/ha): 0% | % Weed control, Grass (Ec and Ecol) ([2]; 14 DAT, 1.5 kg/ha): 0% | % Weed control, Grass (Ec and Ecol) ([2]; 14 DAT, 3.0 kg/ha): 60% | % Weed control, Sedges (Cd, Ci, Fl) ([3]; 5 DAT, 1.0 kg/ha): 100% | % Weed control, Sedges (Cd, Ci, Fl) ([3]; 5 DAT, 1.5 kg/ha): 100% | % Weed control, Sedges (Cd, Ci, Fl) ([3]; 5 DAT, 3.0 kg/ha): 100% | % Weed control, Sedges (Cd, Ci, Fl) ([3]; 14 DAT, 1.0 kg/ha): 0% | % Weed control, Sedges (Cd, Ci, Fl) ([3]; 14 DAT, 1.5 kg/ha): 0% | % Weed control, Sedges (Cd, Ci, Fl) ([3]; 14 DAT, 3.0 kg/ha): 70% | % Weed Control (Echinochloa crusgalli) (Echinochloa crusgalli; 4 DAT, 1.0 kg/ha): 65% | % Weed Control (Echinochloa crusgalli) (Echinochloa crusgalli; 4 DAT, 1.5 kg/ha): 92% | % Weed Control (Echinochloa crusgalli) (Echinochloa crusgalli; 4 DAT, 3.0 kg/ha): 97% | % Weed Control (Echinochloa crusgalli) (Echinochloa crusgalli; 10 DAT, 1.0 kg/ha): 77% | % Weed Control (Echinochloa crusgalli) (Echinochloa crusgalli; 10 DAT, 1.5 kg/ha): 78% | % Weed Control (Echinochloa crusgalli) (Echinochloa crusgalli; 10 DAT, 3.0 kg/ha): 98%
